Measured values taken from US7022709B2, “Selective PDE 2 inhibitors as pharmaceuticals for improving perception” (priority 2000, dated 2006).
Like-named read-outs stand apart in the source and are kept apart here.

Legend:
PDE2 [1] = molecular target: T1, PDE2 (Homo sapiens, UniProt O00408); details: cited from earlier work
adenosine deaminase = adenosine deaminase (Homo sapiens, UniProt P00813); details: read-out: IC50 adenosine deaminase; cited from earlier work
PDE1 = assay: PDE inhibition, PDE1 (Ca-calmodulin-dependent); type: biochemical; details: bovine PDE1
From the text: (§1) The PDE 2 which can be stimulated by cGMP is isolated from bovine myocardium. The PDE 1 which can be stimulated by Ca^2+ calmodulin is isolated from porcine aorta, porcine brain or, preferably, from bovine aorta. The cGMP-specific PDE 5 is obtained from porcine small intestine, porcine aorta, human blood platelets and, preferably, from bovine aorta. Purification takes place by anion exchange chromatography on MonoQ^R Pharmacia essential by the method of Hoey, M; Houslay, M. D., Biochem. Pharmacol. 1990, 40, 193–202 and Lugman et al. Biochem. Pharmacol. 1986, 35, 1743–1751.
(§2) The enzymatic activity is determined in an assay mixture of 100 μl in 20 mM Tris/HCl buffer pH 7.5 which contains 5 mM MgCl2, 0.1 mg/ml bovine serum albumin and 800 Bq of either [^3H]-cAMP or [^3H]-cGMP. […] 100 μl of the reaction mixture are separated by HPLC, and the cleavage products are determined quantitatively on line using a flow scintillation counter. The substance concentration at which the reaction rate is reduced by 50% is measured. […]
(§3) The activity of the test substances on human recombinant PDE2, PDE3B, PDE4B and PDE7B is determined using the [^3H]cAMP scintillation proximity assay (SPA) kit (TRKQ7090) from Amersham International (Little Chalfont, England) and on PDE1 and PDE5 using the [^3H]cGMP scintillation proximity assay (SPA) kit (TRKQ7100) from Amersham International (Little Chalfont, England). […]

PDE4B = molecular target: T2, PDE4B (Homo sapiens, UniProt Q07343); assay: PDE inhibition, human recombinant PDE4B, [3H]cAMP SPA; type: biochemical
T2 construct: made in house; host or cells: Sf9 cells, pFASTBAC baculovirus expression system (Gibco BRL)
Method: (§4) Human recombinant PDE2 (Rosman et al. Gene 1997 191, 89–95), PDE3B (Miki et al. Genomics 1996 36, 476–485), PDE4B (Bolger et al. Mol. Cell. Biol. 1993 13, 6558–6571) and PDE7B (Hetman et al. Proc. Natl. Acad. Sci. U.S.A. 2000 97, 472–476) are expressed in Sf9 cells with the aid of the pFASTBAC baculovirus expression system (Gibco BRL).
(§5) The activity of the test substances on human recombinant PDE2, PDE3B, PDE4B and PDE7B is determined using the [^3H]cAMP scintillation proximity assay (SPA) kit (TRKQ7090) from Amersham International (Little Chalfont, England) and on PDE1 and PDE5 using the [^3H]cGMP scintillation proximity assay (SPA) kit (TRKQ7100) from Amersham International (Little Chalfont, England).
(§6) Test substances are dissolved in 100% DMSO (10 mM), and this solution is diluted further with H2O (maximum final concentration in the assay: 10 μM). The PDE2 is prestimulated by adding cGMP (final concentration in the assay: 10^−6 M). The enzyme is diluted in PDE buffer (20 mM TRIS/HCl, 5 mM MgCl2, 0.1 mg/ml albumin, pH 7.5). […] After the beads have settled out (about 15 min), the plate is measured in a beta counter.
(§7) Calmodulin 10^−7 M and CaCl2 1 μM are added to the reaction mixture for the PDE1 measurement. PDE5 is measured using the [^3H] cGMP SPA assay. PDE3B, PDE4B and PDE7B are measured using the [^3H] cAMP scintillation proximity assay.

PDE7B = molecular target: T3, PDE7B (Homo sapiens, UniProt Q9NP56); assay: PDE inhibition, human recombinant PDE7B, [3H]cAMP SPA; type: biochemical
T3 construct: made in house; host or cells: Sf9 cells, pFASTBAC baculovirus expression system (Gibco BRL)
Method: as §4, §5, §6, §7

PDE2 [2] = molecular target: T1, PDE2; assay: PDE inhibition, human recombinant PDE2, [3H]cAMP SPA; type: biochemical; parameters: made in house; host or cells: Sf9 cells, pFASTBAC baculovirus expression system (Gibco BRL)
Method: as §4, §5, §6

PDE3B = molecular target: T4, PDE3B (Homo sapiens, UniProt Q13370); assay: PDE inhibition, human recombinant PDE3B, [3H]cAMP SPA; type: biochemical
T4 construct: made in house; host or cells: Sf9 cells, pFASTBAC baculovirus expression system (Gibco BRL)
Method: as §4, §5, §6, §7

PDE2 [3] = molecular target: T5, PDE2 (Bos taurus, UniProt P14099); assay: PDE inhibition, cGMP-stimulated PDE2 from bovine myocardium; type: biochemical
T5 construct: from tissue; host or cells: bovine myocardium
T5 sequence (P14099 1-921): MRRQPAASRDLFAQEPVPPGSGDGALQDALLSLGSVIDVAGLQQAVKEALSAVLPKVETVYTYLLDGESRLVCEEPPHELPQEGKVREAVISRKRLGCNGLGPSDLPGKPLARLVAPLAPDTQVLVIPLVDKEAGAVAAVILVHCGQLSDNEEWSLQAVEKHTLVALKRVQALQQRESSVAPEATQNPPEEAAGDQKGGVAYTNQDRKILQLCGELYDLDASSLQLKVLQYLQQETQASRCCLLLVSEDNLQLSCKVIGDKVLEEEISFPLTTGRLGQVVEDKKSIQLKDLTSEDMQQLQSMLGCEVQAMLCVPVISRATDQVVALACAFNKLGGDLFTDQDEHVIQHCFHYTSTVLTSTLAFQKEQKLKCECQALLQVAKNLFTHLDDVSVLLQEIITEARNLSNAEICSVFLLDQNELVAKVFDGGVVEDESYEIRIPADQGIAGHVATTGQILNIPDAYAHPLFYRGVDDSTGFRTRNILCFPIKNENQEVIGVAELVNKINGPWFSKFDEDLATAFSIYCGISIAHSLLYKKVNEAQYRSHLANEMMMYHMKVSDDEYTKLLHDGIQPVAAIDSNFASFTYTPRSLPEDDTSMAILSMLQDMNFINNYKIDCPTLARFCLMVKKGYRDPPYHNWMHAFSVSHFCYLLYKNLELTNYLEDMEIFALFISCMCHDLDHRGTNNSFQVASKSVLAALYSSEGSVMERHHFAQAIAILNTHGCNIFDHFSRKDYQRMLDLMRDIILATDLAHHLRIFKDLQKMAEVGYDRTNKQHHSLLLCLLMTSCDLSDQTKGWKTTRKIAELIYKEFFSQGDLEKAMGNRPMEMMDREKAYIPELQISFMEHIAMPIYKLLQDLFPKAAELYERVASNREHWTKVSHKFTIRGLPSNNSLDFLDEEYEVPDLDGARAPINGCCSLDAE
From the text: as §1
as §2, with “[^3H]-cGMP. The final concentration of the respective nucleotides is 10^−6 mol/l.” for “[^3H]-cGMP.”
Test substances are dissolved in 100% DMSO (10 mM), and this solution is diluted further with H2O (maximum final concentration in the assay: 10 μM). […] After the beads have settled out (about 15 min), the plate is measured in a beta counter.

[4] = tested on: primary mouse (E18) cortex cultures; assay: Increasing the intracellular neuronal cGMP concentration in cell cultures; type: cell-based; details: 100 nM Example 1, parallel incubation with 100 µM SNP, 20 min, 37° C., mouse cortical neurons
Method: PDE 2 inhibitors increase the intracellular neronal cGMP concentration after prestimulation of guanylate cyclase with 10^−4 M sodium nitroprusside (SNP) in primary mouse brain cell cultures.
Mouse embryos were decapitated and the heads were transferred into dissection dishes. The scalp and roof of the skull were removed, and the exposed brains were transferred into another Petri dish. Using a binocular microscope and two forceps, the cerebrum (cortex) was isolated and cooled to 4° C. with ice. This dissection and the isolation of the cortical neurons were then carried out in accordance with a standard protocol with the papain dissociation system (Worthington Biochemical Corporation, Lakewood, N.J. 08701, USA) (Huettner et al. J. Neurosci. 1986, 6, 3044–3060.). […] The cells were then lysed with 200 μl lysis buffer (cGMP kit code RPN 226; from Amersham Pharmacia Biotech.) and cGMP concentration was measured as stated by the manufacturer. […]
Cells were treated with […] SNP (0) or with […] SNP and Example 1 (1×10^−8 M; 5×10^−8 M; 1×10^−7 M; 5×10^−7 M; 1×10^−6 M) for 20 min. The intracellular cGMP level was then measured.

PDE5 = molecular target: T6, PDE5 (Homo sapiens, UniProt O76074); assay: PDE inhibition, PDE5, [3H]cGMP SPA; type: biochemical
T6 construct: from tissue; host or cells: human blood platelets (inferred; b27 also lists porcine small intestine, porcine aorta and, preferably, bovine aorta)
From the text: as §1, §2, §3

rats = assay: Object recognition test; type: in vivo, rat; details: second run 24 hours later
Method: The object recognition test is a memory test. It measures the ability of rats (and mice) to distinguish between familiar and unfamiliar objects.
The test was carried out as described (Blokland et al. NeuroReport 1998, 9, 4205–4208; Ennaceur, A., Delacour, J., Behav. Brain Res. 1988, 31, 47–59; Ennaceur, A., Meliani, K., Psychopharmacology 1992, 109, 321–330; Prickaerts, et al. Eur. J. Pharmacol. 1997, 337, 125–136).
In a first run, a rat is confronted in an otherwise empty observation arena of relatively large size by two identical objects. The rat will investigate, i.e. sniff round and touch, both objects extensively. In a second run, after an interval of 24 hours, the rat is put in the observation arena again. One of the familiar objects has now been replaced by a new, unfamiliar object. If a rat recognizes the familiar object, it will concentrate on investigating the unfamiliar object. However, after 24 hours, a rat has normally forgotten which object it investigated in the first run, and it will therefore inspect both objects to the same extent. Administration of a substance with a learning- and memory-improving effect will lead to a rat recognizing the object seen in the first run 24 hours previously as familiar. It will investigate the new, unfamiliar object in more detail than the familiar one. This memory ability is expressed in a discrimination index. A discrimination index of zero means that the rat investigates both objects, the old and the new, for equal times; that is to say it has not recognized the old object and reacts to both objects as if they were unfamiliar and new.
The effects of Example 1 on object recognition by rats 24 hours after the first run were investigated. The animals received Tylose alone, or Example 1 in dosages of 0.3, 1.0 or 3.0 mg/kg of body weight suspended in Tylose, orally, immediately following the first run with two identical objects. […] After a washout period of 2 or 3 days, a new dosage of Example 1 was tested in the same rats, until the memory capacity of all the rats had been measured twice with all the dosages. […]

T1 sequence (O00408 whole entry): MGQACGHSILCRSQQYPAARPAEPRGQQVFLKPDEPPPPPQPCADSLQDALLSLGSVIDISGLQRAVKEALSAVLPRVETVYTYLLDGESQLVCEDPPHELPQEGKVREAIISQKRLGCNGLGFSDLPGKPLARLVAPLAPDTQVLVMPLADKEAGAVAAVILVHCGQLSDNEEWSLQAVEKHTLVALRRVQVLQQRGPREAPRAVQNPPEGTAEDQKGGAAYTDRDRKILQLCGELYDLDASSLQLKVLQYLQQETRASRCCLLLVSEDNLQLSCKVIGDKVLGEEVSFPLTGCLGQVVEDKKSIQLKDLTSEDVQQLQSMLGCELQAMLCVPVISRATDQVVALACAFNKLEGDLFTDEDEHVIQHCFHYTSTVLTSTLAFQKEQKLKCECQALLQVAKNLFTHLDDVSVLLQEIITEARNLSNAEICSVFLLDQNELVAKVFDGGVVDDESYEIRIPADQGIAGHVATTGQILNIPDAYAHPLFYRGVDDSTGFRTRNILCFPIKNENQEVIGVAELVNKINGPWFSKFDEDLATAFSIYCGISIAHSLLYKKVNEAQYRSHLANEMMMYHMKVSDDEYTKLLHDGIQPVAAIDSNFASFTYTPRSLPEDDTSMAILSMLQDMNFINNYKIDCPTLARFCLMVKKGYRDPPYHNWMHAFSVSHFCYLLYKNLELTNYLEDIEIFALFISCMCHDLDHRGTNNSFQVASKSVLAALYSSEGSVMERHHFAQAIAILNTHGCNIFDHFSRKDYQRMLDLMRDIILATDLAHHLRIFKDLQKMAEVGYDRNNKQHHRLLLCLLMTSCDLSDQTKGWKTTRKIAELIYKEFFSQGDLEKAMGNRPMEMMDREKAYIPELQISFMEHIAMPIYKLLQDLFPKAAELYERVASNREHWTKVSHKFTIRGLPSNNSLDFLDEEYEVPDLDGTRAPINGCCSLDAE
adenosine deaminase, sequence (P00813 whole entry, species assumed): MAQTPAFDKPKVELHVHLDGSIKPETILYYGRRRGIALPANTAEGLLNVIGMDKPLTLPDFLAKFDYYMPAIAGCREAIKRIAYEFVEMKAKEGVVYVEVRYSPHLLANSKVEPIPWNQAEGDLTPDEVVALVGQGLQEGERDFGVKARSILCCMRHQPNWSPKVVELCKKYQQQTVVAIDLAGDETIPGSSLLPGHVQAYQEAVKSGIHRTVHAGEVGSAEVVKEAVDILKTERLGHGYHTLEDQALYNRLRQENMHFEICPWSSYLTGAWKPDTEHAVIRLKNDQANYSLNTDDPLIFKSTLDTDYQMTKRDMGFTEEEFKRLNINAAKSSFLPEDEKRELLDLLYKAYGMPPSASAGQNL
T4 sequence (Q13370 whole entry): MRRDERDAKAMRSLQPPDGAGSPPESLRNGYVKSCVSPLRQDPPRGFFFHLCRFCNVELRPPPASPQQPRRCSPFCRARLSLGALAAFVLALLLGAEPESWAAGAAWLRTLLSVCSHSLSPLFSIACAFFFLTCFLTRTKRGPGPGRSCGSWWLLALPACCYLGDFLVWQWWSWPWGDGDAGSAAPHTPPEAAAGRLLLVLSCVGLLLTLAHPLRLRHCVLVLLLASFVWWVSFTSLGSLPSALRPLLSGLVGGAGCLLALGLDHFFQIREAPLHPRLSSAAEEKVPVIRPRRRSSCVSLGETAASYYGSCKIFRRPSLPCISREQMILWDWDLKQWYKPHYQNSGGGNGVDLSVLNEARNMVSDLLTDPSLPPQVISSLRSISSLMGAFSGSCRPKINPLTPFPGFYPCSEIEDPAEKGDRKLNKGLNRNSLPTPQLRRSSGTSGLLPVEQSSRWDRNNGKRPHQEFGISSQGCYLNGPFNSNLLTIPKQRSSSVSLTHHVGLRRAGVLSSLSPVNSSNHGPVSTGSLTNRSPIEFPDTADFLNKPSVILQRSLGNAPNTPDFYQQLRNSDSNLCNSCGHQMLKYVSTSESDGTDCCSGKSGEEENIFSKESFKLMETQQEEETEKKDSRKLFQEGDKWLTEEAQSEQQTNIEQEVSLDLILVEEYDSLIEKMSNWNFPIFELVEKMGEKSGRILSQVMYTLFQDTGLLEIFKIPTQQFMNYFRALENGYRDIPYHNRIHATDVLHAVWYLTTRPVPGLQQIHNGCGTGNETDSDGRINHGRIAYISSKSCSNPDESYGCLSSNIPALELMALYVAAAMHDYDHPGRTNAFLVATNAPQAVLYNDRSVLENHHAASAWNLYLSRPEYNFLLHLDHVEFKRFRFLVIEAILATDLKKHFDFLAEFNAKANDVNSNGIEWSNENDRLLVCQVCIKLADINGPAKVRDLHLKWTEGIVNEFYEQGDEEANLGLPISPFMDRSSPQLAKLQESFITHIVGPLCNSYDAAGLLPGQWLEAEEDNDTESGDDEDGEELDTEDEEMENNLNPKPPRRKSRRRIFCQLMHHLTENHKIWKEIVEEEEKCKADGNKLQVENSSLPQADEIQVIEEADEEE
T2 sequence (Q07343 whole entry): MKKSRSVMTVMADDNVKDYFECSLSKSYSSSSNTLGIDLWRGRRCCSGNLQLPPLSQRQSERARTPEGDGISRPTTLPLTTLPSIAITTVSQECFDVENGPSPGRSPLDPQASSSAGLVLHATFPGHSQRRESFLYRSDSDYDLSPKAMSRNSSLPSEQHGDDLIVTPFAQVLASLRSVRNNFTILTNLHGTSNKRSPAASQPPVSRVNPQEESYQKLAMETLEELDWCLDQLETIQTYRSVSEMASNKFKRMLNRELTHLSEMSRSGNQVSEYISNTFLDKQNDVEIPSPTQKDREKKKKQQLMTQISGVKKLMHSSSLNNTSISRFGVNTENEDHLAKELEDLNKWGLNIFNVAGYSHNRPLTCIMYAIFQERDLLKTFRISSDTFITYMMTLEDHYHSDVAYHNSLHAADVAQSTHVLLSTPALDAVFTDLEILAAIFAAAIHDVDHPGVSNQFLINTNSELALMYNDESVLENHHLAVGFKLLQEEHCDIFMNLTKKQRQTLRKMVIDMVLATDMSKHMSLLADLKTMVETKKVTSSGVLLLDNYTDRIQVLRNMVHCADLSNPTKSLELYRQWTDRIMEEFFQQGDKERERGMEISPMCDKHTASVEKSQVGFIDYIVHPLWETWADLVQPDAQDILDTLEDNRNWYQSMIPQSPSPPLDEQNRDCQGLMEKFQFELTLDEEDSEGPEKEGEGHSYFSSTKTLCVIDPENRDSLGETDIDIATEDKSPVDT
T3 sequence (Q9NP56 whole entry): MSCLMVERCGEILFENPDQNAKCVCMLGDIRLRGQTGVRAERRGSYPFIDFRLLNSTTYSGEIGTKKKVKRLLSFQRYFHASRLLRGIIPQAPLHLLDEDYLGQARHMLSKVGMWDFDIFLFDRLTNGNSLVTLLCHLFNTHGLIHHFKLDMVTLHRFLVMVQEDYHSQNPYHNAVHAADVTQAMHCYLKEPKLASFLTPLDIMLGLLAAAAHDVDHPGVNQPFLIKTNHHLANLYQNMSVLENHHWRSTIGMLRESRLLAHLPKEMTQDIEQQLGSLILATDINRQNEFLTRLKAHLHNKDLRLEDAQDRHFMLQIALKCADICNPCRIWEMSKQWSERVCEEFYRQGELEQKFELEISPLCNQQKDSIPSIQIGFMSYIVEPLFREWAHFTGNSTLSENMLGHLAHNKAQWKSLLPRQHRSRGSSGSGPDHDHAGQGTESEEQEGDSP

| SMILES | IC50 (PDE2 [1]) [nM] | IC50 (adenosine deaminase) [nM] | IC50 (PDE1) [nM] | IC50 (PDE4B) [nM] | IC50 (PDE7B) [nM] | IC50 (PDE2 [2]) [nM] | IC50 (PDE3B) [nM] | IC50 (PDE2 [3]) [nM] | intracellular cGMP level [4] | IC50 (PDE5) [nM] | memory capacity in the second run compared with control (Tylose alone) (rats; 0.3 mg/kg orally immediately after the first run) | memory capacity in the second run compared with control (Tylose alone) (rats; 1.0 mg/kg orally immediately after the first run) | discrimination index (d2) (rats; 0.3 and 1.0 mg/kg orally) |
| --- | --- | --- | --- | --- | --- | --- | --- | --- | --- | --- | --- | --- | --- |
| CCCCCCC(C(C)O)n1cnc2c(N)ncnc21 (stereo not drawn) [EHNA, erythro-9-(2-hydroxy-3-nonyl)adenine] | 1000 | 3 |  |  |  |  |  |  |  |  |  |  |  |
| COc1ccc(Cc2nc3c(c(C)nn3C(CCCc3ccccc3)C(C)O)c(=O)[nH]2)cc1OC (stereo not shown) [Example 1, 6-(3,4-dimethoxybenzyl)-1-[1-(1-hydroxyethyl)-4-phenylbutyl]-3-methyl-1,5-dihydropyrazolo[3,4-d]pyrimidin-4-one] |  |  | 200 | 2900 | 1600 | 6 | > 4000 | 7 | distinct increase | 300 | improved | improved | greater than zero |
